{"source": "patent US20080200393A1", "about": "“Method and Composition For Treating Angiogenesis and For Preventing Cancer Progression and Metastasis Comprising a Prostate Secretory Protein (Psp94) Family Member” (Ambrillia Biopharma Inc., priority 2004, published 2008)", "key": {"[1]": {"test_system": "total MMP-9 (human active and pro-MMP-9)", "assay": "Total MMP-9 ELISA on plasma of patients, Phase IIa clinical trial", "type": "in vivo", "settings": "for MMP-9 level in plasma, D27C3: day 27 of cycle 3", "from_the_text": "The clinical trial is a multiple ascending dose, open-label, Phase IIa study evaluating the safety and tolerability of PCK3145 derivative; SEQ ID NO.:7 administered intravenously in patients with metastatic hormone resistant prostatic cancer (HRPC). The study is not randomized. Patients have been enrolled sequentially and chronologically.\nThe drug was therefore administered to patients characterized as having metastatic adenocarcinoma of the prostate, stage IV prostatic cancer and as having a metastatic hormone resistant prostatic cancer. Four patients per cohort and 4 ascending doses were evaluated. The ascending doses were 5, 20, 40 and 80 mg/m^2. The dose escalation decision has been based on dose-limiting toxicity (DLT).\nThe 33-day cycle of treatment consisted of a PCK3145 derivative; SEQ ID NO.:7 administration three times per week (day 1, 3 and 5) for 26 days, followed by a 7 day post-treatment observation period. The maximum tolerated dose (MTD) is the dose level below the one inducing grade 3 or 4 drug related toxicity (DLT) in two patients from a cohort of a minimum of 4 patients. Only DLT's observed during the first cycle have been used for the dose escalation decision.\nThe treatment period consisted of intravenous administration of the PCK3145 derivative (SEQ ID NO.:5 derivative) i.e., SEQ ID NO.:7, three times per week (day 1, 3 and 5) for 26 consecutive days during which patients were closely monitored and undergone regular examination. After a week of treatment break and in the absence of toxicity and disease progression, patients optionally received additional treatment cycles.\nBiological samples were drawn during different time points of the study for the purpose of safety monitoring and have been assayed for MMP-9 levels. Plasma samples were placed on dry ice and stored frozen (approximately −70° C.) and subsequently analyzed for total MMP-9 levels.\nMMP-9 assay methodology. An Elisa assay measuring total MMP-9, i.e., human active and pro-MMP-9, (Quantikine®), Cat. No.: DMP900, R&D Systems Inc.) was performed on plasma-heparin samples. Plasma samples have been collected from individuals at day 1 (before treatment) and at day 27 of each treatment cycle.\nThe Quantikine® MMP-9 immunoassay is a solid phase ELISA designed to measure total MMP-9 (92 kDa pro- and 82 kDa active forms) in serum, plasma, saliva, urine and cell culture supernatants. It is calibrated with CHO-cells expressed recombinant human pro-MMP-9 and the antibodies were raised against the recombinant factor. Both antibodies also recognize recombinant human active MMP-9.\nThe assay employs the quantitative sandwich enzyme immunoassay technique. A monoclonal antibody specific for MMP-9 has been pre-coated onto a microplate. Standards and samples are added into the wells, and MMP-9 is thus bound by the immobilized antibody. After washing away unbound substances, an enzyme-linked polyclonal antibody specific for MMP-9 is added to the wells. Following a wash to remove unbound antibody-enzyme reagent, a substrate solution is added to the wells and color develops in proportion to the amount of total MMP-9 (pro and/or active) bound in the initial step. The color development is stopped and the intensity of the color is measured."}, "U-87 cells": {"test_system": "U-87 cells", "assay": "U-87 cell migration on hyaluronic acid", "type": "cell-based", "settings": "300 ug/ml, 48 hrs pretreatment; HA-coated filters, 2 hours", "protocol": "The biological activity of a desired polypeptide may further be determined using migration assays. U-87 cells are treated with a polypeptide of the present invention (e.g., any PCK3145 derivative, fragment, analog, such as for example, any one of or combinations of SEQ ID NOs.: 9 to 98). The treated cells are trypsinised, counted, and seeded on HA-coated filters inserted in modified Boyden Chambers as described herein or in the art. Cell migration is allowed to proceed for 2 hours at 37° C. Filters are then stained for cells that have migrated through the filter. A decreased basal U-87 cell migration observed in cells treated with a polypeptide of the present invention is indicative of a biologically active polypeptide (i.e., a biologically active PCK3145 derivative, fragment, analog).\nMigration/invasion of cancer cells is a key event in tumor metastasis. In vitro, this process can be reconstituted by plating cells onto ECM-coated filters inserted in modified Boyden chemotactic chambers. The effect of the PCK3145 derivative can be monitored by the number of cells that had migrated comparatively to untreated control cells. […] U-87 cells were treated with the PCK3145 derivative (300 ug/ml, 48 hrs), trypsinised, counted, and seeded on HA-coated filters inserted in modified Boyden Chambers. […]"}}, "note": "Where “and” joins values, the source holds several entries; their conditions need not be identical. Equal values may be shown once. Where no end group is shown, it is not given here.", "data": [{"sequence": "EWQTDNCETCTCYET (cysteine pairing not given here) [PCK3145 derivative, PCK3145 derivative with acetylaminomethyl groups on the three cysteines]", "values": [{"measurement": "change in MMP-9 levels compared to baseline", "setting": "[1]; elevated MMP-9 category (patients A, B, C, D), after one cycle", "value": "significant decrease"}, {"measurement": "MMP-9 level in plasma, D27C2", "setting": "[1]; elevated baseline MMP-9 patients, day 27 of cycle 2", "value": "55.6 µg/L and 37.7 µg/L"}, {"measurement": "MMP-9 level in plasma, D27C3", "setting": "[1]; elevated baseline MMP-9 patients", "value": 54.5, "unit": "µg/L"}, {"measurement": "MMP-9 level in plasma, D27C4", "setting": "[1]; elevated baseline MMP-9 patients, day 27 of cycle 4", "value": 39.4, "unit": "µg/L"}, {"measurement": "MMP-9 level in plasma, D27C3", "setting": "[1]; normal baseline MMP-9 patients", "value": 101.8, "unit": "µg/L"}, {"measurement": "change in MMP-9 levels compared to baseline", "setting": "[1]; normal value MMP-9 category (patients E, F, G, H, I), after one cycle", "value": "no significant decrease"}, {"measurement": "decrease in MMP-9 levels compared to baseline", "setting": "[1]; patient A, after cycle 1", "value": "up to 89%"}, {"measurement": "decrease in MMP-9 levels compared to baseline", "setting": "[1]; patient B, after cycle 1", "value": 41, "unit": "%"}, {"measurement": "reduction of baseline level of MMP-9", "setting": "[1]; patient B, treatment cycle 2", "value": 64, "unit": "%"}, {"measurement": "reduction of baseline level of MMP-9", "setting": "[1]; patient B, treatment cycle 3", "value": 65, "unit": "%"}, {"measurement": "reduction of baseline level of MMP-9", "setting": "[1]; patient B, treatment cycle 4", "value": 75, "unit": "%"}, {"measurement": "decrease in MMP-9 levels compared to baseline", "setting": "[1]; patient C, cycle 1", "value": 90, "unit": "%"}, {"measurement": "reduction in MMP-9 levels", "setting": "[1]; patient C, cycle 2", "value": 76, "unit": "%"}, {"measurement": "decrease in MMP-9 levels compared to baseline", "setting": "[1]; patient D, cycle 1", "value": 34, "unit": "%"}, {"measurement": "change in MMP-9 levels compared to baseline", "setting": "[1]; patient E, after 3 cycles", "value": "no MMP-9 decrease"}, {"measurement": "change in MMP-9 levels compared to baseline", "setting": "[1]; patients E and G, after 2 cycles", "value": "no decrease"}, {"measurement": "decrease of basal U-87 cell migration", "setting": "U-87 cells", "value": "approximately 3 fold"}]}]}
